Converted amounts (≈) assume the structure as drawn. The source made the active and inactive calls. The rule behind the calls is not given here.
How the values were obtained:
[1] = system: Trypanosoma brucei brucei; test: Antitrypanosomal activity against Trypanosoma brucei brucei GVR35 infected in NMRI mouse CNS model assessed as survival of mouse at 20 mg/kg, ip for 5 days; type: functional; conditions: route intraperitoneal
[2] = Ratio of IC50 for Trypanosoma brucei gambiense STIB930 to IC50 for wild-type Trypanosoma brucei rhodesiense […]; type: functional
[3] = system: Trypanosoma brucei rhodesiense; test: Antitrypanosomal activity against wild-type Trypanosoma brucei rhodesiense STIB900 by Alamar blue assay; type: functional, organism-based
[4] = system: Trypanosoma brucei rhodesiense; test: Antitrypanosomal activity against wild-type Trypanosoma brucei rhodesiense STIB900 infected in NMRI mouse assessed as survival of mouse at 0.5 mg/kg, ip for 4 days; type: functional; conditions: route intraperitoneal
[5] = system: Trypanosoma brucei gambiense; test: Antitrypanosomal activity against Trypanosoma brucei gambiense ITMAP141267 by Alamar blue assay; type: functional, organism-based
[6] = system: Trypanosoma brucei gambiense; test: Ratio of IC50 for Trypanosoma brucei gambiense K03048 to IC50 for Trypanosoma brucei gambiense STIB930; type: functional
[7] = system: Trypanosoma brucei rhodesiense; test: Antitrypanosomal activity against wild-type Trypanosoma brucei rhodesiense STIB900 infected in NMRI mouse assessed as survival of mouse at 2.5 mg/kg, ip for 4 days; type: functional; conditions: route intraperitoneal
[8] = system: Trypanosoma brucei gambiense; test: Antitrypanosomal activity against Trypanosoma brucei gambiense STIB930 by Alamar blue assay; type: functional, organism-based
[9] = system: Trypanosoma brucei rhodesiense; test: Antitrypanosomal activity against wild-type Trypanosoma brucei rhodesiense STIB900 infected in NMRI mouse assessed as survival of mouse at 20 mg/kg, ip for 4 days; type: functional; conditions: route intraperitoneal
[10] = system: Trypanosoma brucei brucei; test: Antitrypanosomal activity against Trypanosoma brucei brucei GVR35 infected in NMRI mouse CNS model assessed as cure from infection at 20 mg/kg, ip for 5 days; type: functional, organism-based; design: dose 20 mg/kg
[11] = system: Trypanosoma brucei rhodesiense; test: Ratio of IC50 for melasoprol-resistant Trypanosoma brucei rhodesiense STIB900 to IC50 for wild-type Trypanosoma brucei rhodesiense […]; type: functional
[12] = system: Trypanosoma brucei brucei; test: Ratio of IC50 for Trypanosoma brucei brucei AT1KO to IC50 for Trypanosoma brucei brucei BS221; type: functional
[13] = Ratio of IC50 for Trypanosoma brucei gambiense ITMAP141267 to IC50 for wild-type Trypanosoma brucei rhodesiense […]; type: functional
[14] = Ratio of IC50 for Trypanosoma brucei gambiense K03048 to IC50 for wild-type Trypanosoma brucei rhodesiense STIB900; type: functional
[15] = system: Trypanosoma brucei gambiense; test: Antitrypanosomal activity against Trypanosoma brucei gambiense K03048 by Alamar blue assay; type: functional, organism-based
[16] = system: Trypanosoma brucei brucei; test: Antitrypanosomal activity against Trypanosoma brucei brucei BS221 by Alamar blue assay; type: functional, organism-based
[17] = system: Trypanosoma brucei brucei; test: Antitrypanosomal activity against Trypanosoma brucei brucei AT1KO by Alamar blue assay; type: functional, organism-based
[18] = system: Trypanosoma brucei brucei; test: Antitrypanosomal activity against Trypanosoma brucei brucei GVR35 infected in NMRI mouse CNS model assessed as survival of mouse at 20 mg/kg, ip for 10 days; type: functional; conditions: route intraperitoneal
[19] = system: Trypanosoma brucei rhodesiense; test: Antitrypanosomal activity against wild-type Trypanosoma brucei rhodesiense STIB900 infected in NMRI mouse assessed as survival of mouse at 10 mg/kg, ip for 4 days; type: functional; conditions: route intraperitoneal
[20] = system: Trypanosoma brucei rhodesiense; test: Ratio of IC50 for pentamidine-resistant Trypanosoma brucei rhodesiense STIB900 to IC50 for wild-type Trypanosoma brucei rhodesiense STIB900; type: functional
[21] = system: Trypanosoma brucei rhodesiense; test: Antitrypanosomal activity against wild-type Trypanosoma brucei rhodesiense STIB900 infected in NMRI mouse assessed as survival of mouse at 5 mg/kg, ip for 4 days; type: functional; conditions: route intraperitoneal
[22] = system: Trypanosoma brucei rhodesiense; test: Antitrypanosomal activity against melasoprol-resistant Trypanosoma brucei rhodesiense STIB900 by Alamar blue assay; type: functional, organism-based
[23] = system: Trypanosoma brucei rhodesiense; test: Antitrypanosomal activity against pentamidine-resistant Trypanosoma brucei rhodesiense STIB900 by Alamar blue assay; type: functional, organism-based
[24] = system: Trypanosoma brucei rhodesiense; test: Antitrypanosomal activity against wild-type Trypanosoma brucei rhodesiense STIB900 infected in NMRI mouse assessed as cure from infection at 0.5 mg/kg, ip for 4 days; type: functional, organism-based; design: dose 0.5 mg/kg
[25] = system: Trypanosoma brucei rhodesiense; test: Antitrypanosomal activity against wild-type Trypanosoma brucei rhodesiense STIB900 infected in NMRI mouse assessed as cure from infection at 10 mg/kg, ip for 4 days; type: functional, organism-based; design: dose 10 mg/kg
[26] = system: Trypanosoma brucei rhodesiense; test: Antitrypanosomal activity against wild-type Trypanosoma brucei rhodesiense STIB900 infected in NMRI mouse assessed as cure from infection at 20 mg/kg, ip for 4 days; type: functional, organism-based; design: dose 20 mg/kg
[27] = system: Trypanosoma brucei rhodesiense; test: Antitrypanosomal activity against wild-type Trypanosoma brucei rhodesiense STIB900 infected in NMRI mouse assessed as survival of mouse at 50 mg/kg, po for 4 days; type: functional
[28] = system: Trypanosoma brucei brucei; test: Antitrypanosomal activity against Trypanosoma brucei brucei GVR35 infected in NMRI mouse CNS model assessed as survival of mouse at 25 mg/kg, po for 5 days; type: functional
[29] = system: Trypanosoma brucei brucei; test: Antitrypanosomal activity against Trypanosoma brucei brucei GVR35 infected in NMRI mouse CNS model assessed as cure from infection at 10 mg/kg, po for 10 days; type: functional, organism-based; design: dose 10 mg/kg
[30] = system: Trypanosoma brucei brucei; test: Antitrypanosomal activity against Trypanosoma brucei brucei GVR35 infected in NMRI mouse CNS model assessed as cure from infection at 100 mg/kg, po for 5 days; type: functional, organism-based; design: dose 100 mg/kg
[31] = system: Trypanosoma brucei rhodesiense; test: Antitrypanosomal activity against wild-type Trypanosoma brucei rhodesiense STIB900 infected in NMRI mouse assessed as survival of mouse at 5 mg/kg, po for 4 days; type: functional
[32] = system: Trypanosoma brucei rhodesiense; test: Antitrypanosomal activity against wild-type Trypanosoma brucei rhodesiense STIB900 infected in NMRI mouse assessed as survival of mouse at 25 mg/kg, po for 4 days; type: functional
[33] = system: Trypanosoma brucei rhodesiense; test: Antitrypanosomal activity against wild-type Trypanosoma brucei rhodesiense STIB900 infected in NMRI mouse assessed as cure from infection at 50 mg/kg, po for 4 days; type: functional, organism-based; design: dose 50 mg/kg
[34] = system: Trypanosoma brucei brucei; test: Antitrypanosomal activity against Trypanosoma brucei brucei GVR35 infected in NMRI mouse CNS model assessed as cure from infection at 25 mg/kg, po for 5 days; type: functional, organism-based; design: dose 25 mg/kg
[35] = system: Trypanosoma brucei brucei; test: Antitrypanosomal activity against Trypanosoma brucei brucei GVR35 infected in NMRI mouse CNS model assessed as cure from infection at 100 mg/kg, po for 10 days; type: functional, organism-based; design: dose 100 mg/kg
[36] = system: Trypanosoma brucei brucei; test: Antitrypanosomal activity against Trypanosoma brucei brucei GVR35 infected in NMRI mouse CNS model assessed as survival of mouse at 100 mg/kg, po for 5 days; type: functional
[37] = system: Trypanosoma brucei brucei; test: Antitrypanosomal activity against Trypanosoma brucei brucei GVR35 infected in NMRI mouse CNS model assessed as survival of mouse at 50mg/kg, po for 10 days; type: functional
[38] = system: Trypanosoma brucei brucei; test: Antitrypanosomal activity against Trypanosoma brucei brucei GVR35 infected in NMRI mouse CNS model assessed as survival of mouse at 25 mg/kg, po for 10 days; type: functional
[39] = system: Trypanosoma brucei brucei; test: Antitrypanosomal activity against Trypanosoma brucei brucei GVR35 infected in NMRI mouse CNS model assessed as survival of mouse at 10 mg/kg, po for 10 days; type: functional
[40] = system: Trypanosoma brucei brucei; test: Antitrypanosomal activity against Trypanosoma brucei brucei GVR35 infected in NMRI mouse CNS model assessed as survival of mouse at 100 mg/kg, po for 10 days; type: functional
[41] = system: Trypanosoma brucei rhodesiense; test: Antitrypanosomal activity against wild-type Trypanosoma brucei rhodesiense STIB900 infected in NMRI mouse assessed as cure from infection at 5 mg/kg, po for 4 days; type: functional, organism-based; design: dose 5 mg/kg
[42] = system: Trypanosoma brucei rhodesiense; test: Antitrypanosomal activity against wild-type Trypanosoma brucei rhodesiense STIB900 infected in NMRI mouse assessed as cure from infection at 25 mg/kg, po for 4 days; type: functional, organism-based; design: dose 25 mg/kg

N=C(N)c1ccc(-c2ccc(-c3ccc(C(=N)N)cn3)o2)cc1
MSD [1]: 102.5 days
Ratio IC50 [2]: 3.5
IC50 [3]: 2.4 ng/mL (≈ 0.00786 µM)
MSD [4]: 29 days
IC50 [5]: 5.7 ng/mL (≈ 0.0187 µM)
Ratio IC50 [6]: 14
MSD [7]: >49 days
IC50 [8]: 8.4 ng/mL (≈ 0.0275 µM)
MSD [9]: >60 days
Activity [10]: inactive
Ratio IC50 [11]: 12.4
Ratio IC50 [12]: 15.4
Ratio IC50 [13]: 2.4
Ratio IC50 [14]: 3.5
IC50 [15]: 8.4 ng/mL (≈ 0.0275 µM)
IC50 [16]: 2.8 ng/mL (≈ 0.00917 µM)
IC50 [17]: 42.9 ng/mL (≈ 0.14 µM)
MSD [18]: >128.2 days
MSD [19]: >60 days
Ratio IC50 [20]: 9.6
MSD [21]: >54.5 days
IC50 [22]: 29.2 ng/mL (≈ 0.0956 µM)
IC50 [23]: 22.5 ng/mL (≈ 0.0737 µM)
Activity [24]: inactive
Activity [25]: Active
Activity [26]: Active

CO/N=C(\N)c1ccc(-c2ccc(-c3ccc(/C(N)=N/OC)cn3)o2)nc1
MSD [27]: >60 days
MSD [28]: >95.8 days
Activity [29]: inactive
Activity [30]: Active
MSD [31]: >40.25 days
MSD [32]: >42 days
Activity [33]: Active
Activity [34]: inactive
Activity [35]: Active
MSD [36]: >180 days
MSD [37]: >153.4 days
MSD [38]: >132.4 days
MSD [39]: 70 days
MSD [40]: >180 days

CO/N=C(/N)c1ccc(-c2ccc(-c3ccc(/C(N)=N/O)cn3)o2)nc1
Activity [41]: inactive
MSD [31]: 29.7 days
MSD [32]: >61 days
MSD [36]: >140.4 days
Activity [42]: Active
